Calls of active or inactive are those of the source. The calls are words filed in the database; no cut-off is given here.
Legend:
Albumin [1] = molecular target: T1, Albumin (Bos taurus, UniProt P02769); test: Binding affinity to bovine serum albumin at 2 uM by circular dichroism spectroscopic analysis; details: cattle, TDE = time-dependent effect
[2] = molecular target: Amyloid-beta precursor protein (Homo sapiens) (UniProt P05067); test: Binding affinity to ordered beta sheet of amyloid beta (1 to 42) (unknown origin) by circular dichroism spectroscopic analysis
Albumin [3] = molecular target: T1, Albumin; test: Binding affinity to beta-sheet rich bovine serum albumin at 2 uM by circular dichroism spectroscopic analysis; details: cattle, TDE = time-dependent effect
[4] = molecular target: Amyloid-beta precursor protein (Homo sapiens) (UniProt P05067); test: Binding affinity to unordered beta sheet of amyloid beta (1 to 42) (unknown origin) by circular dichroism spectroscopic analysis
Albumin [5] = molecular target: T1, Albumin; test: Binding affinity to bovine serum albumin at 2 uM by circular dichroism spectroscopic analysis relative to control; details: cattle
Albumin [6] = molecular target: T1, Albumin; test: Binding affinity to bovine serum albumin at 2 uM by circular dichroism spectroscopic analysis relative to control relative to control; details: cattle
[7] = molecular target: Amyloid-beta precursor protein (Homo sapiens) (UniProt P05067); test: Binding affinity to ordered beta sheet of amyloid beta (1 to 42) (unknown origin) assessed as fluorescence enhancement at 0.5 uM by fluorescence spectra analysis relative to control
[8] = molecular target: Amyloid-beta precursor protein (Homo sapiens) (UniProt P05067); test: Binding affinity to unordered beta sheet of amyloid beta (1 to 42) (unknown origin) assessed as fluorescence enhancement at 0.5 uM by fluorescence spectra analysis relative to control

Chain of Amyloid-beta precursor protein (Homo sapiens) (P05067 whole entry): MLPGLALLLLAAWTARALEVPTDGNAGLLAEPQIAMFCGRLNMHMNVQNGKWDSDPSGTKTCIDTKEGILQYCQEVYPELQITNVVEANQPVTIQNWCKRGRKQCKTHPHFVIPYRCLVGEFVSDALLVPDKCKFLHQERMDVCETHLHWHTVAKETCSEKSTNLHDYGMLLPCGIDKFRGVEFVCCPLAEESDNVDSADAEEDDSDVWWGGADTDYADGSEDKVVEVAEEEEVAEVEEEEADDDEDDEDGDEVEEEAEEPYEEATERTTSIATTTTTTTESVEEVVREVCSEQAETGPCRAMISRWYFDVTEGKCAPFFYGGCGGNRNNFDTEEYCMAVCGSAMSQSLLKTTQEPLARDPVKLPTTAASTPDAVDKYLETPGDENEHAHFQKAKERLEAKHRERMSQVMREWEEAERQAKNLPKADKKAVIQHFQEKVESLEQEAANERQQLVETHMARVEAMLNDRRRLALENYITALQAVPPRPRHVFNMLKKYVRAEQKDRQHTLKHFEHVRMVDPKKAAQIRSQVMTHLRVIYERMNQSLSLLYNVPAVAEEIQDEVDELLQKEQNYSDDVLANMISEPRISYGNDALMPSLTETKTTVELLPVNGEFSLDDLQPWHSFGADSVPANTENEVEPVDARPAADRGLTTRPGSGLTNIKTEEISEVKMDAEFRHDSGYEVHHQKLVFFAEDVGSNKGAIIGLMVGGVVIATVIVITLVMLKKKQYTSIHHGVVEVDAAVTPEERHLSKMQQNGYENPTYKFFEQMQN
T1 sequence (P02769 whole entry): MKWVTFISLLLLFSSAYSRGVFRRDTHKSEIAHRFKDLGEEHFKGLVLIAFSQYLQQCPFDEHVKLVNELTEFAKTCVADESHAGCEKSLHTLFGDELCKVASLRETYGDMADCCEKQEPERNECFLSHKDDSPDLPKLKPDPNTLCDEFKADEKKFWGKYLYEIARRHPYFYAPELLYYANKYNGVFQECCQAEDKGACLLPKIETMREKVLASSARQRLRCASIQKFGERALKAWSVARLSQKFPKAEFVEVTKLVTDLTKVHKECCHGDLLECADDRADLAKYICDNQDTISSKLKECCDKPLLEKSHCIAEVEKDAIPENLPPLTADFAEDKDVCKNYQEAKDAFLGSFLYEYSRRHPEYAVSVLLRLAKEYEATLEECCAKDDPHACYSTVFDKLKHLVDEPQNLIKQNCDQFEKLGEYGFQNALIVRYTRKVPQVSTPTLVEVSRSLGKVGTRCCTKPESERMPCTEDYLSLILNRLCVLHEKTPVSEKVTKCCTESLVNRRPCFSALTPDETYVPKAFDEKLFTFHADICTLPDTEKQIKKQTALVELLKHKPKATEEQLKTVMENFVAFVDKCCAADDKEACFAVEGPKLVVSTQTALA

- Activity (Albumin [1]): tde
- Activity [2]: Active
- Activity (Albumin [3]): tde
- Activity [4]: Active
- fold change (FC) (Albumin [5]): 57
- fold change (FC) (Albumin [6]): 340
- fold change (FC) [7]: 16
- fold change (FC) [8]: 6
Compound: F[B-]1(F)n2c(-c3ccccc3)cc(-c3ccccc3)c2N=C2C(c3ccccc3)=CC(c3ccccc3)=[N+]21
